These compounds were tested on Cellular tumor antigen p53 (Homo sapiens), P04637 [Y220C] (assay: Binding affinity to recombinant His-tagged p53 Y220C mutant DNA binding domain (94 to 312 residues) (unknown origin) assessed as induction of biotin-labeled consensus DNA binding by measuring […] concentration required to increase DNA binding incubated for 48 mins by TR-FRET assay). Settings: filed as activator.

EC150 [nM]	SMILES
8	COc1cc(S(C)(=O)=O)ccc1NCC#Cc1cc2c(N[C@@H]3CCN(C)C[C@@H]3F)cccc2n1CC(F)(F)F
9	COc1cc(S(C)(=O)=O)ccc1NCC#Cc1cc2c(N[C@@H]3CCN(C)C[C@@H]3F)cccc2n1CC(F)(F)F (racemic)
20	COc1cc(S(C)(=O)=O)ccc1NCC#Cc1cc2c(N[C@H]3CCN(C)C[C@H]3F)cccc2n1CC(F)(F)F
20	COc1cc(S(C)(=O)=O)ccc1NCC#Cc1cc2c(N[C@@H]3CCN(C)C[C@H]3F)cccc2n1CC(F)(F)F (racemic)
